The source of these data is patent US7348401B2, “Peptides that inhibit complement activation” (priority 2003, dated 2008).

Where no end group is shown, it is not given here.

One assay deals with T1, complement component C5 (Homo sapiens, UniProt P01031).
T1 construct: purchased Advanced Research Technologies
Briefly: Phage clone binding to C5 and free-peptide competition assay. The following applies: for competition among phage clones and free peptides for binding to C5: free peptide at 50, 10 and 1 μM; for specific binding to complement component C5: phage panning / phage clone binding. As to the method: Peptides were identified by panning an M13 phage library (New England Biolabs), a random 12mer peptide library with a diversity of 10^11 different peptide structures, against complement component C5. The phage library was panned against C5 using three different methods for immobilizing C5. The binding reactions all contained 2×10^11 phage particles in PBS containing 0.5% BSA and 0.3% Tween 20. The binding reactions were carried out at 25° C. for two hours and then unbound phage were removed by washing 5 times with PBS containing 0.5% BSA and 0.3% Tween20. The phage were eluted by acid (0.2 M Glycine pH 2.2, 1 mg/mL BSA) and immediately neutralized with 1 M Tris pH 9.1. Following elution, recovered phage were amplified in ER2738 E. coli (NEB) and subjected to two more rounds of panning as described above. The methods for immobilizing C5 include directly coating C5 (Advanced Research Technologies) to the surface (1 μg/mL), capturing biotinylated C5 (1 μg/mL) on a neutravidin (Pierce) coated surface, and capturing biotinylated C5a (1 μg/mL) on a neutravidin (Pierce) coated surface. C5 and C5a (Quidel) were biotinylated by incubating with 10 fold molar excess of Sulfo-NHS-LC-LC-Biotin for 2 hours at room temperature at pH 7.4 and then removing excess biotin by gel filtration. A negative selection was performed in the final round against neutravidin for the two latter screening methods. DNA from twenty randomly selected clones from each of the three final libraries was isolated and sequenced.
The binding sites of the peptides were further probed via C5-binding competition assays. Increasing concentrations of each phage clone were incubated for 2 hours with 200 ng of biotinylated C5 in PBS containing 0.5% BSA. The phage bound C5 complex was captured on a neutravidin coated microplate for 20 minutes at room temperature and then washed with PBS containing 0.5% BSA. A peroxidase labeled anti-M13 antibody (Pharmacia) was used to detect the amount of phage bound to C5 with OPD substrate. Competition assays with free peptide were carried out in a similar manner except that one concentration of each phage clone was used which was determined as the concentration giving approximately 50% binding in the previous titration. Free peptide was added to the phage clones at concentrations of 50, 10 and 1 μM and incubated with the biotinylated C5 and the assay was carried out as above.

The subject of assay [1] is classical pathway; antibody sensitized sheep erythrocyte cells. Briefly: Classical pathway hemolytic assay (RBC hemolysis assay). The following applies: for inhibition of hemolysis: 100 uM peptide. The format is cell-based, human. As to the method:
Inhibition of the classical pathway by the peptides was measured using a standard hemolysis assay, which monitors the lysis of sheep erythrocytes as a result of terminal complex formation (see e.g. FIG. 1, FIG. 10). Various concentrations of peptide were incubated with 50 μL pooled human plasma (diluted 1:30 with GVB^++), 5×10^7 antibody sensitized sheep erythrocyte cells, and GVB^++ buffer to a final volume of 200 μL. The reaction was incubated at 37° C. for one hour and centrifuged. The percentage of lysis was determined by measuring the optical density of the supernatant at 414 nm. 100% lysis was determined by the optical density at 414 nm of the supernatant from a control sample consisting of 5×10^7 antibody sensitized sheep erythrocyte cells in water. The percent inhibition was calculated as the (% lysisno peptide−% lysispeptide)/% lysisno peptide×100.

A further assay relates to classical pathway. Briefly: Classical pathway component assay (immune complex, ELISA for C5a, SC5b-9, C3a). The format is biochemical, human. The following applies: classical pathway, immune complex, human plasma. As to the method:
The inhibition of the classical pathway by the peptides was measured by incubating human plasma in the presence and absence of peptides with an immune complex generated on a surface and then monitoring for the production of complement components C5a, SC5b-9, and C3a. To generate the immune complex, a 10 mg/mL solution of BSA in PBS was incubated at 56° C. for 30 minutes and then used to coat the surface of a microplate by diluting to 50 μg/mL at pH 9.6 and incubating for one hour at 37° C. The plate was washed and then incubated with 18 μg/mL mouse anti-BSA IgG2a (Sigma) for one hour at 37° C. Pooled human plasma with and without various concentrations of peptide were incubated for 30 minutes at 37° C. with the generated immune complex and the reaction was stopped with the addition of EDTA. The plasma samples were then analyzed with commercially available ELISA's for the production of C5a (Pharmingen), SC5b-9 (Quidel), and C3a (Quidel).
For orientation: ELISA stands for enzyme-linked immunosorbent assay.

In another assay the test system is alternative pathway. Briefly: Alternative activation pathway C.A. membrane assay (ELISA for C5a, SC5b-9, C3a). It is filed as biochemical. The following applies: cellulose acetate hemodialysis membrane, human plasma. As to the method: Inhibition of the alternative pathway by the peptides was determined by incubating pooled human plasma in the presence and absence of various concentrations of peptide with 20 mg of cellulose acetate hemodialysis membrane at 37° C. for one hour. The reaction was stopped with EDTA and then the samples were analyzed with commercially available ELISA's for the production of C5a (Pharmingen), SC5b-9 (Quidel), and C3a (Quidel).

The test system of assay [2] is complement system activated by zymosan. As to the kind of experiment: Alternative activation pathway zymosan assay (ELISA for C5a, SC5b-9, C3a). It is filed as biochemical. The following applies: 2 mg/mL zymosan, human plasma. As to the method:
The peptides were evaluated for involvement in activation of the complement system by the presence of zymosan. Zymosan, or yeast cell wall, has largely been described as an alternative pathway activator. In addition, there are sugars on the surface of the yeast cell wall which are capable of activating the lectin pathway. Therefore, zymosan can be considered as a general complement activator.
Varying concentrations of peptide were incubated with 2 mg/mL zymosan in pooled human plasma. The reactions were incubated at 37° C. for one hour and then stopped by the addition of EDTA. The samples were centrifuged, the plasma removed, and analyzed with commercially available ELISA's for the production of C5a (Pharmingen), SC5b-9 (Quidel), and C3a (Quidel).

Another assay relates to Human mesangial cells. As to the kind of experiment: Inhibition of complement mediated cell death, in vitro autoimmune glomerulonephritis model. The following applies: 250 μM of peptide, 48 hours. It is filed as cell-based. As to the method: The peptides were evaluated for their ability to inhibit complement mediated cell death in an in vitro autoimmune glomerulonephritis model. Human mesangial cells were cultured to approximately 75% confluency and then treated for one hour at 37° C. with phosphatidyl inositol-phospholipase C to remove GPI-anchored complement regulatory proteins. Following enzyme treatment, the cells were washed and equilibrated in GSBM growth medium supplemented with 2.5% fetal bovine serum for one hour at 37° C. The cells were then incubated in pooled human plasma supplemented with 100 μg/mL of heat aggregated human IVIG (generated by heating at 63° C. for 30 minutes) either in the presence of absence of various concentrations of peptides for 48 hours at 37° C. The source of complement was replenished every 12 hours during the incubation by adding 25% of the original volume of fresh plasma along with heat aggregated IVIG and peptides so that the same final concentrations were maintained. Following the 48 hour incubation, the cells were stained with the commercial Live/Dead Viability kit (Molecular Probes) and the relative fluorescence was measured to determine the extent of cell death. The percent of cell death was calculated versus a control sample in which heat-inactivated plasma, (heated to 56° C. for 30 minutes) as a means of inactivating complement components, was used.

T1 sequence (P01031 19-1676): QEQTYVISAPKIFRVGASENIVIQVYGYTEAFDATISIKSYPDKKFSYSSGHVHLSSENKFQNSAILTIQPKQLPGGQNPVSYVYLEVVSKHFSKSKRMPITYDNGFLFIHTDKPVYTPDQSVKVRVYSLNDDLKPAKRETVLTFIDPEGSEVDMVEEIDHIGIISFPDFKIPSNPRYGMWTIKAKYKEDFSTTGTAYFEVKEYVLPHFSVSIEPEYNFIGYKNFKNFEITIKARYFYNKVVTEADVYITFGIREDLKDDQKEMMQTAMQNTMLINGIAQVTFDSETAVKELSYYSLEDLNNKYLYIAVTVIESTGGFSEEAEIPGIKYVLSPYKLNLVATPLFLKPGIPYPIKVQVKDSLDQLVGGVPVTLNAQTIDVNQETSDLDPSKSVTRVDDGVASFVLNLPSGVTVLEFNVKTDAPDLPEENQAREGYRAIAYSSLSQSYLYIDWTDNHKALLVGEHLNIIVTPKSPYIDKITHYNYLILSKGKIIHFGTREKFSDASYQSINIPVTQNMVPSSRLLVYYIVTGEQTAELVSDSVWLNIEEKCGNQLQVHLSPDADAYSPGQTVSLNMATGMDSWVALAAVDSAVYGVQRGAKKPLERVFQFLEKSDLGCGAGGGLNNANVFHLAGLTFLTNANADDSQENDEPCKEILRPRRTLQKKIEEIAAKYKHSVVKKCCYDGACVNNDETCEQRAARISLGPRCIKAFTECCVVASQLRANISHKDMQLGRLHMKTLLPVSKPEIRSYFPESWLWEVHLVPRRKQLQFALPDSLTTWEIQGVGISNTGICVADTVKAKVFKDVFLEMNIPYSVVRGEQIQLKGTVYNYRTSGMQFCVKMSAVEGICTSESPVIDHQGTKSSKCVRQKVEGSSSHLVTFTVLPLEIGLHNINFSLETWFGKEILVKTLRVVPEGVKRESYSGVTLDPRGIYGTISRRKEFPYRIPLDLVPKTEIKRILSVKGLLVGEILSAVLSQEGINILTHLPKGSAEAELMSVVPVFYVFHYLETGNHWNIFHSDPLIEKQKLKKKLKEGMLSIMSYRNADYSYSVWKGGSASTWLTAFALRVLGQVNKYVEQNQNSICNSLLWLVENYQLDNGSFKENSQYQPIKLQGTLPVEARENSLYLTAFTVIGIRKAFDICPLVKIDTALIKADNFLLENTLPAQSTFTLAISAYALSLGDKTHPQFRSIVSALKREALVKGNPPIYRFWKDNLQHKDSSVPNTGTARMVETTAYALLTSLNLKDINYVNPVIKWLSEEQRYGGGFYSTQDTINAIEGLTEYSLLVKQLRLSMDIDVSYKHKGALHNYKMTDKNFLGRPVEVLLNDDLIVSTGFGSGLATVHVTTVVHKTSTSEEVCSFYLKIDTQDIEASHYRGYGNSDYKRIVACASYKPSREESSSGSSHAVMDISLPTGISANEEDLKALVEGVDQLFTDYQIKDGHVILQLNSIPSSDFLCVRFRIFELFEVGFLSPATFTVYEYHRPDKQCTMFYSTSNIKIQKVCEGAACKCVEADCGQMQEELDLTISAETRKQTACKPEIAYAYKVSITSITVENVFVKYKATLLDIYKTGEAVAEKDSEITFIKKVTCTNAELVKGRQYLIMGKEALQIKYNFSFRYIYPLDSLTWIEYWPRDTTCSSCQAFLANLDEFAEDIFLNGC

DSTWTNFRWEFY [Peptide 8]: on complement component C5, the “competition among phage clones and free peptides for binding to C5” value is “significant competition”; the “specific binding to complement component C5” value (from here on “specific binding”) was “specifically bound complement component C5”. For the same sequence, the inhibition of hemolysis entry in assay [1] is “significant inhibition of hemolysis”. Also, in the assay with classical pathway, the C3a production result is “neither of these peptides produced an effect”, the C5a production result is “dose-dependent increase in the inhibition” and the SC5b-9 production entry is listed as “dose-dependent increase in the inhibition”. In the assay on alternative pathway, the C3a production entry was “no effect”, the C5a generation result is “dose-dependent inhibition” and the SC5b-9 generation result is given as “dose-dependent inhibition”. Further, in assay [2], the C3a generation entry is given as “no observeable effect”, the C5a production entry was “inhibited” and the SC5b-9 production result is “inhibited”.

Consider SFNDLLWRWEWP [Peptide 7], for which, at complement component C5, the “competition among phage clones and free peptides for binding to C5” value is listed as “significant competition”; the “specific binding” value is on record as “specifically bound complement component C5”. For the same sequence, in assay [1], the inhibition of hemolysis entry was “significant inhibition of hemolysis”. Besides, in the assay on classical pathway, the C3a production entry is on record as “enhanced production”, the C5a production result is “inhibited” and the SC5b-9 production result is “inhibited”. In addition, in the assay with alternative pathway, the C3a production entry is “activated”, the C5a generation entry is on record as “inhibited” and the SC5b-9 generation result is given as “inhibited”. Moreover, in assay [2], the C3a generation entry is given as “activated”, the C5a production entry is “inhibited” and the SC5b-9 production entry is “inhibited”.

With TEEVRWEFPL [Peptide 117], the “inhibitory activity in RBC hemolysis assay compared with parent peptide” value in assay [1] is reported as “enhanced the levels of inhibitory activity”. Also, the “inhibition of complement mediated cell death” value in the assay with Human mesangial cells is listed as “up to 69%”.

With TQDNRWEFPLRV [Peptide 13], at complement component C5, the “competition among phage clones and free peptides for binding to C5” value is given as “significant competition”; the “specific binding” value was “specifically bound complement component C5”. Besides, in assay [1], the “inhibitory activity in RBC hemolysis assay compared with parent peptide” value is “almost comparable activity” and the inhibition of hemolysis entry was “significant inhibition of hemolysis”. Further, in the assay on classical pathway, the C3a production entry is on record as “neither of these peptides produced an effect”, the C5a production entry was “dose-dependent increase in the inhibition” and the SC5b-9 production result is “dose-dependent increase in the inhibition”. For the same sequence, in the assay on alternative pathway, the C3a production entry is given as “no effect”, the C5a generation result is “dose-dependent inhibition” and the SC5b-9 generation entry was “dose-dependent inhibition”. Also, in assay [2], the C3a generation entry was “no observeable effect”, the C5a production result is “inhibited” and the SC5b-9 production result is “inhibited”.
